According to publication PMC8424369 (Journal of Pharmaceutical Analysis, 2020):

Legend:
Caco-2 cell monolayer = assay: Bidirectional transport experiments on Caco-2 cell monolayer model; type: in vitro ADME, human; conditions: for Papp(AP-BL): AP to BL; for Papp(AP-BL) / Recovery (%) BL-AP / Papp(BL-AP) / ER (efflux ratio, Papp(BL-AP)/Papp(AP-BL)): donor 10 μM, 3 h; for Papp(AP-BL) / Recovery (%) BL-AP / Papp(BL-AP): 37 °C; for Papp(AP-BL) / Papp(BL-AP): single time point, mean ± S.D. (n=3); for Recovery (%) BL-AP / Papp(BL-AP): BL to AP; for Intestinal absorption / transport mechanism speculated from ER: comparison of Papp in two directions
[1] = Stability of QC samples in transport medium; type: physicochemical; conditions: HBSS, n=3
[2] = Bidirectional transport experiments on Caco-2 cell monolayer model; type: in vitro ADME, human; conditions: human, donor 10 μM, 3 h
[3] = high QC conc. (SSs 100, SGF 1000, SGD 800, SGG 2200 nM)
[4] = low QC conc. (SSs 1, SGF 10, SGD 8, SGG 22 nM)
[5] = middle QC conc. (SSs 10, SGF 100, SGD 80, SGG 220 nM)

| Papp(AP-BL) (Caco-2 cell monolayer) | Recovery (%) BL-AP (Caco-2 cell monolayer) | Papp(BL-AP) (Caco-2 cell monolayer) | Intestinal absorption / transport mechanism speculated from ER (Caco-2 cell monolayer) | ER (efflux ratio, Papp(BL-AP)/Papp(AP-BL)) (Caco-2 cell monolayer) | Stability, Autosampler (4 °C for 8 h), RE (%) [1, 3] | Stability, Bench-top (room temperature for 6 h), RE (%) [1, 3] | Stability, Freeze-thaw (three cycles at −80 °C), RE (%) [1, 3] | Stability, Processed samples (−80 °C for 8 h), RE (%) [1, 3] | Stability, Autosampler (4 °C for 8 h), RE (%) [1, 4] | Stability, Bench-top (room temperature for 6 h), RE (%) [1, 4] | Stability, Freeze-thaw (three cycles at −80 °C), RE (%) [1, 4] | Stability, Processed samples (−80 °C for 8 h), RE (%) [1, 4] | Stability, Autosampler (4 °C for 8 h), RE (%) [1, 5] | Stability, Bench-top (room temperature for 6 h), RE (%) [1, 5] | Stability, Freeze-thaw (three cycles at −80 °C), RE (%) [1, 5] | Stability, Processed samples (−80 °C for 8 h), RE (%) [1, 5] | Compound | other results |
| --- | --- | --- | --- | --- | --- | --- | --- | --- | --- | --- | --- | --- | --- | --- | --- | --- | --- | --- |
| 0.051 ± 0.010 × 10^−6 cm/s | 68.12% | 0.055 ± 0.011 × 10^−6 cm/s | passive transport | 1.09 | 5.11% | −0.27% | 8.34% | 4.04% | 0.92% | 0.01% | 2.62% | 3.52% | 0.35% | 5.34% | 3.06% | 6.93% | C[C@H]1O[C@@H](O[C@H]2CC[C@@]3(C)[C@@H](CC[C@]4(C)[C@@H]3C=CC3=C5CC(C)(C)CC[C@]5(CO)[C@H](O)C[C@]34C)[C@]2(C)CO)[C@H](O)[C@@H](O[C@@H]2O[C@H](CO)[C@@H](O)[C@H](O)[C@H]2O)[C@H]1O [SSb2] | – |
| – | – | – | passive transport | – | −1.88% | 0.62% | 1.36% | −1.50% | −3.60% | −1.06% | −7.46% | −10.40% | 0.91% | 2.00% | 8.65% | 2.87% | C[C@H]1O[C@@H](O[C@H]2CC[C@@]3(C)[C@@H](CC[C@]4(C)[C@@H]3C=C[C@]35OC[C@@]6(CCC(C)(C)C[C@H]63)[C@@H](O)C[C@]54C)[C@]2(C)CO)[C@H](O)[C@@H](O[C@@H]2O[C@H](CO)[C@@H](O)[C@H](O)[C@H]2O)[C@H]1O [SSa] | efflux ratio at 3 h, 10 μM ([2]; Caco-2, ER (efflux ratio, Papp(BL-AP)/Papp(AP-BL))): 1.15; Papp A→B at 3 h, 10 μM ([2]; Caco-2, Papp(AP-BL), AP to BL, 37 °C, single time point, mean ± S.D. (n=3)): 0.088 ± 0.014 ×10⁻⁶ cm/s; Papp B→A at 3 h, 10 μM ([2]; Caco-2, Papp(BL-AP), BL to AP, 37 °C, single time point, mean ± S.D. (n=3)): 0.102 ± 0.031 ×10⁻⁶ cm/s; recovery at 3 h, 10 μM ([2]; Caco-2, Recovery (%) BL-AP, BL to AP, 37 °C): 77.6% |

| Compound | Papp(AP-BL) (Caco-2 cell monolayer) | Recovery (%) BL-AP (Caco-2 cell monolayer) | Papp(BL-AP) (Caco-2 cell monolayer) | Intestinal absorption / transport mechanism speculated from ER (Caco-2 cell monolayer) | ER (efflux ratio, Papp(BL-AP)/Papp(AP-BL)) (Caco-2 cell monolayer) | Stability, Autosampler (4 °C for 8 h), RE (%) [1, 3] | Stability, Bench-top (room temperature for 6 h), RE (%) [1, 3] | Stability, Freeze-thaw (three cycles at −80 °C), RE (%) [1, 3] | Stability, Processed samples (−80 °C for 8 h), RE (%) [1, 3] | Stability, Autosampler (4 °C for 8 h), RE (%) [1, 4] | Stability, Bench-top (room temperature for 6 h), RE (%) [1, 4] | Stability, Freeze-thaw (three cycles at −80 °C), RE (%) [1, 4] | Stability, Processed samples (−80 °C for 8 h), RE (%) [1, 4] | Stability, Autosampler (4 °C for 8 h), RE (%) [1, 5] | Stability, Bench-top (room temperature for 6 h), RE (%) [1, 5] | Stability, Freeze-thaw (three cycles at −80 °C), RE (%) [1, 5] | Stability, Processed samples (−80 °C for 8 h), RE (%) [1, 5] | other results |
| --- | --- | --- | --- | --- | --- | --- | --- | --- | --- | --- | --- | --- | --- | --- | --- | --- | --- | --- |
| C[C@H]1O[C@@H](O[C@H]2CC[C@@]3(C)[C@@H](CC[C@]4(C)[C@@H]3C=C[C@]35OC[C@@]6(CCC(C)(C)C[C@H]63)[C@H](O)C[C@]54C)[C@]2(C)CO)[C@H](O)[C@@H](O[C@@H]2O[C@H](CO)[C@@H](O)[C@H](O)[C@H]2O)[C@H]1O [SSd] | 0.312 ± 0.020 × 10^−6 cm/s | 68.96% | 0.079 ± 0.012 × 10^−6 cm/s | certain uptake transporters were probably involved | 0.25 | −0.92% | −8.09% | 12.04% | −5.31% | −5.69% | 0.83% | −1.11% | 1.51% | −0.46% | 8.37% | 5.76% | −0.37% | – |
